This is an account of results in ChEMBL document CHEMBL1201862, “PubChem BioAssay data set” (2004).

Test systems include EKVX; HT-29; SK-OV-3; RXF 393; Hs-578T; UO-31; SK-MEL-2; MDA-MB-231; IGROV-1; SN12C; HOP-92; NCI-H226; NCI-H522; A498; T47D; U-251; NCI/ADR-RES; NCI-H460; TK-10; HL-60.
Common to all, as to assay: NCI anticancer screen, dose series, 48 h

Molecules are shown by their SMILES.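 The compound was tested at five concentrations on cells cultured in 96-well plates, with a 48-hour exposure period. GI50 marks 50% less growth.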 Calls of active or inactive are those of the source. Cut-off read from the data, not from the text of the source: active = GI50 up to about 1.1 µM and inactive = higher. Bounds are passed on as bounds.

For `c1ccc(/C(=N\Nc2nc3ccccc3[nH]2)c2ccccn2)cc1`, the GI50 was 0.47 µM (active) in the assay on EKVX; 0.0101 µM (active) with HT-29; 0.342 µM (active) in the assay on SK-OV-3; 0.716 µM (active) in the assay with RXF 393; 5.5 µM (inactive) in the assay on Hs-578T; 0.291 µM (active) with UO-31. Moreover, the GI50 in the assay with SK-MEL-2 is 4.09 µM (inactive); in the assay on MDA-MB-231, 0.415 µM (active); in the assay with IGROV-1, 0.262 µM (active); with SN12C it was 0.415 µM (active); with HOP-92 it was 0.238 µM (active); in the assay with NCI-H226, 0.256 µM (active). Also, the GI50 with NCI-H522 was 0.25 µM (active); with A498 it was 0.916 µM (active); in the assay with T47D it was 0.136 µM (active); in the assay with U-251, 0.407 µM (active); in the assay with NCI/ADR-RES, 0.284 µM (active); in the assay with NCI-H460, 0.617 µM (active). Moreover, the GI50 in the assay with TK-10 was 0.314 µM (active).

With `CCOC(=O)c1ccc(C(=O)/C(C#N)=C2\CCCN2)[nH]1`, the GI50 is 11.7 µM (inactive) in the assay with EKVX; 72.3 µM (inactive) in the assay on HT-29; > 100 µM (inactive) in the assay on SK-OV-3; 14.8 µM (inactive) with RXF 393; > 100 µM (inactive) with Hs-578T; > 100 µM (inactive) with UO-31. Besides, the GI50 in the assay with SK-MEL-2 was 97.1 µM (inactive); in the assay with MDA-MB-231, > 100 µM (inactive); in the assay with IGROV-1, > 100 µM (inactive); in the assay with SN12C it was > 100 µM (inactive); in the assay on HOP-92, > 100 µM (inactive); with NCI-H226, > 100 µM (inactive). The GI50 with A498 was > 100 µM (inactive); with T47D it was > 100 µM (inactive); with U-251, > 100 µM (inactive); with HL-60, 66.5 µM (inactive); in the assay with NCI/ADR-RES, 78.3 µM (inactive); in the assay with NCI-H460, > 100 µM (inactive).

Regarding `C#CCn1c(=O)ccn(/C(=C/C(=O)OCC)C(=O)OCC)c1=O`, the GI50 was 5.62 µM (inactive) in the assay on EKVX; 2.17 µM (inactive) in the assay with HT-29; 35.2 µM (inactive) in the assay on SK-OV-3; 1.36 µM (inactive) with RXF 393; 18.7 µM (inactive) in the assay on Hs-578T; 12.6 µM (inactive) in the assay on UO-31. Further, the GI50 in the assay with SK-MEL-2 was 15.2 µM (inactive); with MDA-MB-231, 14.8 µM (inactive); in the assay on IGROV-1, 4.21 µM (inactive); in the assay with SN12C it was 9.08 µM (inactive); in the assay with HOP-92, 2.38 µM (inactive); in the assay on NCI-H226, 18.6 µM (inactive). The GI50 was 15.1 µM (inactive) in the assay with A498; 2.67 µM (inactive) in the assay with T47D; 14.2 µM (inactive) in the assay on U-251; 3.44 µM (inactive) with HL-60; 3.7 µM (inactive) in the assay on NCI/ADR-RES; 2.69 µM (inactive) with NCI-H460. Besides, in the assay with TK-10, the GI50 was 1.77 µM (inactive).

Take `COC(COC(=O)N1CCN(C=O)CC1)C1=C(N2CC2)C(=O)C(C)=C(N2CC2)C1=O` (stereo unspecified): the GI50 in the assay on EKVX is 5.08 µM (inactive); in the assay with HT-29, 0.189 µM (active); in the assay on SK-OV-3 it was 0.195 µM (active); with RXF 393, 0.228 µM (active); with Hs-578T, 1.26 µM (inactive); in the assay with UO-31, 0.486 µM (active). Also, the GI50 is 0.705 µM (active) in the assay with SK-MEL-2; 2.29 µM (inactive) with MDA-MB-231; 0.271 µM (active) in the assay on IGROV-1; 0.0336 µM (active) in the assay on SN12C; 0.198 µM (active) with HOP-92; 0.582 µM (active) in the assay on NCI-H226. In addition, the GI50 with NCI-H522 is 0.107 µM (active); with A498, 1.51 µM (inactive); in the assay with T47D, 0.257 µM (active); with U-251, 0.219 µM (active); in the assay with NCI/ADR-RES, 5.57 µM (inactive); in the assay on NCI-H460, < 0.0278 µM (active). For the same compound, the GI50 with TK-10 is 0.579 µM (active).

For the compound `O=C(OCc1ccccc1CN1CCOCC1)c1ccc(Br)cc1`, the GI50 with EKVX was 55.1 µM (inactive); with HT-29 it was 20.5 µM (inactive); in the assay with SK-OV-3 it was > 100 µM (inactive); with RXF 393 it was > 100 µM (inactive); with Hs-578T it was 69.3 µM (inactive); in the assay with UO-31, 95.7 µM (inactive). Further, the GI50 in the assay with SK-MEL-2 is 36 µM (inactive); in the assay with MDA-MB-231 it was 71.4 µM (inactive); with IGROV-1, 47.8 µM (inactive); in the assay on SN12C it was 76 µM (inactive); in the assay on HOP-92, 93.1 µM (inactive); with NCI-H226, > 100 µM (inactive). The GI50 in the assay on NCI-H522 was 28.7 µM (inactive); in the assay with A498, > 100 µM (inactive); in the assay on T47D, 43.5 µM (inactive); in the assay on U-251, 88.7 µM (inactive); in the assay with NCI/ADR-RES it was 42 µM (inactive); with NCI-H460 it was > 100 µM (inactive). For the same compound, the GI50 in the assay with TK-10 is > 100 µM (inactive).

In the case of `Cc1ccc(/N=N/C(=N\c2ccc(Cl)cc2)c2ccc(N(CCC#N)CCC#N)cc2)cc1`, the GI50 is 22.9 µM (inactive) in the assay with EKVX; 71.4 µM (inactive) with HT-29; > 100 µM (inactive) in the assay with SK-OV-3; 36.8 µM (inactive) with RXF 393; 33.7 µM (inactive) with Hs-578T; 6.89 µM (inactive) in the assay on UO-31. Also, the GI50 in the assay on MDA-MB-231 is 25.8 µM (inactive); with IGROV-1, 30.3 µM (inactive); in the assay on SN12C it was 40.9 µM (inactive); in the assay with HOP-92 it was 46.3 µM (inactive); in the assay with NCI-H226, > 100 µM (inactive); in the assay with NCI-H522 it was 19.4 µM (inactive). Moreover, the GI50 was > 100 µM (inactive) with A498; 12.5 µM (inactive) in the assay on T47D; 25.2 µM (inactive) in the assay on U-251; 57.8 µM (inactive) in the assay with NCI/ADR-RES; 18.1 µM (inactive) in the assay on NCI-H460; 21.7 µM (inactive) with TK-10.

For `C(=C/c1ccc2nc(-c3ccc(/C=C/C=N/NC4=NCCCN4)cc3)cn2c1)/C=N/NC1=NCCCN1`, the GI50 in the assay with EKVX was 18.8 µM (inactive); with SK-OV-3, > 100 µM (inactive); in the assay on RXF 393 it was 23.8 µM (inactive); with Hs-578T, 15.8 µM (inactive); in the assay with UO-31, > 100 µM (inactive); with SK-MEL-2, > 100 µM (inactive). In addition, the GI50 was 15.2 µM (inactive) in the assay with MDA-MB-231; 31.5 µM (inactive) in the assay with IGROV-1; > 100 µM (inactive) in the assay with SN12C; > 100 µM (inactive) with HOP-92; 14.8 µM (inactive) with NCI-H226; 9.64 µM (inactive) in the assay with NCI-H522. The GI50 with A498 is > 100 µM (inactive); with T47D, 40.9 µM (inactive); with U-251, 16.1 µM (inactive); with NCI/ADR-RES it was 22.1 µM (inactive); with NCI-H460 it was 13.3 µM (inactive); in the assay on TK-10, 19.5 µM (inactive).

Consider `COc1ccc(C2=Nn3c(nc4sc(C)c(C)c4c3=O)SC2)cc1`, for which the GI50 with EKVX, in the assay with HT-29, with SK-OV-3, with RXF 393, in the assay with Hs-578T and with UO-31 was > 100 µM (inactive) in each case. In addition, the GI50 with MDA-MB-231, with IGROV-1, in the assay with SN12C, in the assay with HOP-92, with NCI-H226 and in the assay with NCI-H522 was > 100 µM (inactive) in each case. Besides, the GI50 with A498, in the assay with T47D, in the assay on U-251, in the assay with HL-60, in the assay on NCI/ADR-RES and in the assay with NCI-H460 was > 100 µM (inactive) each time. Also, in the assay on TK-10, the GI50 was > 100 µM (inactive).

On to `CCCCC(C#N)(OP1(=O)OC(c2ccccc2)C(C)N1C)c1ccccc1` (stereo unspecified), for which the GI50 in the assay on EKVX is 22.5 µM (inactive); in the assay on HT-29, 18.1 µM (inactive); in the assay with SK-OV-3, 19.5 µM (inactive); in the assay with RXF 393, 16.6 µM (inactive); in the assay with Hs-578T it was 16.3 µM (inactive); in the assay on UO-31 it was 17.3 µM (inactive). Moreover, the GI50 in the assay on SK-MEL-2 was 19.2 µM (inactive); in the assay with MDA-MB-231, 15.7 µM (inactive); in the assay with IGROV-1, 16.7 µM (inactive); in the assay with SN12C, 16.7 µM (inactive); in the assay on HOP-92 it was 12.4 µM (inactive); in the assay on NCI-H522, 17.2 µM (inactive). The GI50 in the assay on A498 was 18.9 µM (inactive); with T47D, 21.3 µM (inactive); with U-251, 17.3 µM (inactive); with HL-60, 14.4 µM (inactive); in the assay on NCI/ADR-RES, 20 µM (inactive); with NCI-H460, 16.1 µM (inactive). Moreover, the GI50 with TK-10 is 18.9 µM (inactive).

Take `CCCCC(C(=O)N/N=C/c1ccc([N+](=O)[O-])o1)C(=O)N/N=C/c1ccc([N+](=O)[O-])o1`: the GI50 was 13.4 µM (inactive) in the assay on EKVX; 2.14 µM (inactive) in the assay on HT-29; 21.1 µM (inactive) in the assay on SK-OV-3; 2.07 µM (inactive) in the assay on RXF 393; 2.4 µM (inactive) in the assay on Hs-578T; 1.99 µM (inactive) in the assay on UO-31. Moreover, the GI50 is 7.19 µM (inactive) with SK-MEL-2; 3.81 µM (inactive) in the assay on MDA-MB-231; 2.17 µM (inactive) in the assay on IGROV-1; 3.66 µM (inactive) in the assay on SN12C; 1.52 µM (inactive) in the assay with HOP-92; 2.37 µM (inactive) in the assay on NCI-H226. For the same compound, the GI50 in the assay on A498 is 19.8 µM (inactive); in the assay on T47D, 3.46 µM (inactive); in the assay with U-251, 2.74 µM (inactive); in the assay with HL-60 it was 2.52 µM (inactive); in the assay with NCI/ADR-RES it was 2.64 µM (inactive); in the assay on NCI-H460, 15.1 µM (inactive). In the assay on TK-10, the GI50 is 2.28 µM (inactive).

`CN(C)c1ccc(/C=C2\N=C(c3ccccc3)N(c3nc4ccc(Sc5ccccc5)cc4[nH]3)C2=O)cc1`: the GI50 in the assay on EKVX is 40.7 µM (inactive); in the assay with HT-29, 32.4 µM (inactive); with SK-OV-3, 13.7 µM (inactive); in the assay on RXF 393, 50.2 µM (inactive); in the assay on Hs-578T, 35.2 µM (inactive); in the assay with UO-31 it was 59.3 µM (inactive). For the same compound, the GI50 with SK-MEL-2 is 20.8 µM (inactive); with MDA-MB-231, 49.1 µM (inactive); with IGROV-1, 61.5 µM (inactive); with SN12C, 45.4 µM (inactive); in the assay on HOP-92, 94.4 µM (inactive); with NCI-H522, 29.2 µM (inactive). The GI50 is 37.6 µM (inactive) in the assay with A498; 44 µM (inactive) with T47D; 47.9 µM (inactive) with U-251; 6.61 µM (inactive) with HL-60; 25.9 µM (inactive) in the assay on NCI/ADR-RES; 30 µM (inactive) in the assay with NCI-H460. The GI50 with TK-10 was 23.5 µM (inactive).
